Where two headings read alike, the source gives them in different places.
Target: AmQNS (quinolone synthase) (Aegle marmelos, UniProt M1HE54)
Experiment: Surface plasmon resonance (SPR) AmQNS-substrate interaction studies
Type: binding
Details: for association rate constant (kon): SPR association rate; for dissociation rate constant (koff): SPR dissociation rate
Description: ProteOn XPR array system[21] and ‘GLM’ sensor chip was used for the SPR interaction studies. […] Here, amine coupling works, where the amine groups present in the AmQNS covalently bind to the chemically activated carboxyl groups of the dextran molecules. Channel L3 and L4 were used for immobilization of protein while L2 was used as reference. The extent of non-specific interactions was eliminated or reduced by optimizing the buffer conditions. […] N-methylanthraniloyl-CoA was purchased from TransMIT (Plant MetaChem, www.plantmetachem.com), whereas all other substrates were purchased from Sigma-Aldrich (www.sigmaaldrich.com).
Following AmQNS immobilization and its stability screening, all binding studies were done at 30 °C. The SPR-based system measures the changes in refractive index to investigate the direct interaction between AmQNS and different CoA substrates. […] In our experiments, AmQNS was captured on the surface of the GLM sensor chip and used to screen the preferred substrates (acyl-CoA’s) in the presence and absence of malonyl-CoA. […] The sensogram was prepared by processing the data (after subtraction of L2 responses (reference channel). Baseline drift due to the bulk refractive index change, non-specific binding, matrix effects and injection noise were also corrected using the reference spots. Further, the responses obtained from the AmQNS-small molecular interactions at different concentrations were fitted using the Langmuir 1:1 biomolecular interaction model using the ProteOn Manager software version 3.1.0.6 (Bio-Rad, USA). Equilibrium dissociation constants (KD) were calculated from the ratio of the association and dissociation rates.

[1] = AmQNS immobilized on GLM chip, 30 °C, Langmuir 1:1 model
[2] = SPR, AmQNS immobilized on GLM chip, 30 °C, in presence of malonyl-CoA, Langmuir 1:1 model, read-out: KD
[3] = SPR, AmQNS immobilized on GLM chip, 30 °C, Langmuir 1:1 model, read-out: KD (KD= kd /ka)

AmQNS (quinolone synthase), sequence (M1HE54 entry or part of it): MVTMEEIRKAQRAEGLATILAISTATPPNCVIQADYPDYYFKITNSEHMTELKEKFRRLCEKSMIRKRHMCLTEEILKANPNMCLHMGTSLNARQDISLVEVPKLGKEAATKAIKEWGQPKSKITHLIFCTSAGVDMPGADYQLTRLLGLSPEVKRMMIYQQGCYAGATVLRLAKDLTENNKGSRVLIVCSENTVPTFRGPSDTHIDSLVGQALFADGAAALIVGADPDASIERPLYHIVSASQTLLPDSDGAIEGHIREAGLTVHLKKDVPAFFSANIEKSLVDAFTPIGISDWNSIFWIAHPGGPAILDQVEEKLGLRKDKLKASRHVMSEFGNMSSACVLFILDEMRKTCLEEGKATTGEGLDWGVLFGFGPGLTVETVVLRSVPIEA

| Structure (SMILES) | association rate constant (kon) [1] | dissociation rate constant (koff) [1] | Kd [2] | Kd [3] | Kd |
| --- | --- | --- | --- | --- | --- |
| COc1cc(/C=C/C(=O)SCCNC(=O)CCNC(=O)[C@H](O)C(C)(C)COP(=O)(O)OP(=O)(O)OC[C@H]2O[C@@H](n3cnc4c(N)ncnc43)[C@H](O)[C@@H]2OP(=O)(O)O)ccc1O [Feruloyl-CoA] | 1e+08 M⁻¹ s⁻¹ | 0.983 s⁻¹ | 9.83 nM |  |  |
| CC(C)(COP(=O)(O)OP(=O)(O)OC[C@H]1O[C@@H](n2cnc3c(N)ncnc32)[C@H](O)[C@@H]1OP(=O)(O)O)[C@@H](O)C(=O)NCCC(=O)NCCSC(=O)c1ccccc1 [Benzoyl-CoA] | 9510 M⁻¹ s⁻¹ | 0.0267 s⁻¹ |  | 2800 nM |  |
| CCCC(=O)SCCNC(=O)CCNC(=O)[C@H](O)C(C)(C)COP(=O)(O)OP(=O)(O)OC[C@H]1O[C@@H](n2cnc3c(N)ncnc32)[C@H](O)[C@@H]1OP(=O)(O)O [Butyryl-CoA] | 36100 M⁻¹ s⁻¹ | 0.0495 s⁻¹ |  |  | 1370 nM |
| CC(C)(COP(=O)(O)OP(=O)(O)OC[C@H]1O[C@@H](n2cnc3c(N)ncnc32)[C@H](O)[C@@H]1OP(=O)(O)O)[C@@H](O)C(=O)NCCC(=O)NCCSC(=O)CC(=O)O [Malonyl-CoA] | 78200 M⁻¹ s⁻¹ | 0.0134 s⁻¹ |  | 172 nM |  |
| COc1cc(/C=C/C(=O)SCCNC(=O)CCNC(=O)[C@H](O)C(C)(C)COP(=O)(O)OP(=O)(O)OC[C@H]2O[C@@H](n3cnc4c(N)ncnc43)[C@H](O)[C@@H]2OP(=O)(O)O)cc(OC)c1O [Sinapoyl-CoA] | 141000 M⁻¹ s⁻¹ | 0.0163 s⁻¹ |  | 116 nM |  |
| CNc1ccccc1C(=O)SCCNC(=O)CCNC(=O)[C@H](O)C(C)(C)COP(=O)(O)OP(=O)(O)OC[C@H]1O[C@@H](n2cnc3c(N)ncnc32)[C@H](O)[C@@H]1OP(=O)(O)O [N-methylanthraniloyl-CoA] | 1e+08 M⁻¹ s⁻¹ | 0.204 s⁻¹ | 2.04 nM |  |  |
| CCCCCCCCCCCCCC(=O)SCCNC(=O)CCNC(=O)[C@H](O)C(C)(C)COP(=O)(O)OP(=O)(O)OC[C@H]1O[C@@H](n2cnc3c(N)ncnc32)[C@H](O)[C@@H]1OP(=O)(O)O [Myristoyl-CoA] | 13000 M⁻¹ s⁻¹ | 0.00404 s⁻¹ |  |  |  |
| CCCCCCCCCCCCCCCCCC(=O)SCCNC(=O)CCNC(=O)[C@H](O)C(C)(C)COP(=O)(O)OP(=O)(O)OC[C@H]1O[C@@H](n2cnc3c(N)ncnc32)[C@H](O)[C@@H]1OP(=O)(O)O [Stearoyl-CoA] | 11700 M⁻¹ s⁻¹ | 0.00193 s⁻¹ |  | 164 nM |  |
| CCCCCCCCCCCCCCCC(=O)SCCNC(=O)CCNC(=O)[C@H](O)C(C)(C)COP(=O)(O)OP(=O)(O)OC[C@H]1O[C@@H](n2cnc3c(N)ncnc32)[C@H](O)[C@@H]1OP(=O)(O)O [Palmitoyl-CoA] | 45800 M⁻¹ s⁻¹ | 0.00417 s⁻¹ |  | 91.1 nM |  |
| CCCCCC(=O)SCCNC(=O)CCNC(=O)[C@H](O)C(C)(C)COP(=O)(O)OP(=O)(O)OC[C@H]1O[C@@H](n2cnc3c(N)ncnc32)[C@H](O)[C@@H]1OP(=O)(O)O [Hexanoyl-CoA] | 963000 M⁻¹ s⁻¹ | 0.00703 s⁻¹ | 7.3 nM |  |  |
| CC(C)(COP(=O)(O)OP(=O)(O)OC[C@H]1O[C@@H](n2cnc3c(N)ncnc32)[C@H](O)[C@@H]1OP(=O)(O)O)[C@@H](O)C(=O)NCCC(=O)NCCSC(=O)/C=C/c1ccc(O)cc1 [p-coumaroyl CoA] | 591000 M⁻¹ s⁻¹ | 0.0595 s⁻¹ |  | 101 nM |  |

Source: article PMC11093982, “Structural and mechanistic insights into Quinolone Synthase to address its functional promiscuity” (Communications Biology, 2024)
